Measured values taken from ChEMBL document CHEMBL1158094, “Paratunamides A-D, oxindole alkaloids from Cinnamodendron axillare” (J Nat Prod, 2006).
Values after ≈ are worked out from the molar mass of the structure shown.

System: KB
Test: Cytotoxicity against human KB cells
Type: functional, cell-based

SMILES | IC50
C=C[C@H]1[C@H](O[C@@H]2O[C@H](CO)[C@@H](O)[C@H](O)[C@H]2O)OC=C2C(=O)N(CC[C@@]3(O)C(=O)Nc4ccccc43)[C@H](OC)C[C@H]21 [PARATUNAMIDE A] | > 10 µg/mL
C=C[C@H]1[C@H](O[C@@H]2O[C@H](CO)[C@@H](O)[C@H](O)[C@H]2O)OC=C2C(=O)N(CC[C@@]3(O)C(=O)Nc4ccccc43)C(=O)C[C@H]21 [PARATUNAMIDE B] | > 10 µg/mL
C=C[C@H]1[C@H](O[C@@H]2O[C@H](CO)[C@@H](O)[C@H](O)[C@H]2O)OC=C2C(=O)N(CC[C@]3(O)C(=O)Nc4ccccc43)C(=O)C[C@H]21 [PARATUNAMIDE C] | > 10 µg/mL
C=C[C@H]1[C@H](O[C@@H]2O[C@H](CO)[C@@H](O)[C@H](O)[C@H]2O)OC=C2C(=O)N(CC[C@@]3(O)C(=O)Nc4ccccc43)[C@H](O)C[C@H]21 [PARATUNAMIDE D] | 6 µg/mL (≈ 10.9 µM)
